We go through 6 compounds from US4081434A, “Novel analogs of β-endorphin” (Hoffmann-La Roche Inc., priority 1977, dated 1978).

Ends that are not written are not given here.

The subject of one experiment is guinea pig ileum. The experiment can be described thus: guinea pig ileum bioassay of Kosterlitz et al. (opiate agonist activity). The experiment is classed as cell-based. The settings on record: guinea pig ileum assay for opiate agonist activity. An excerpt: Thus, for example, in the guinea pig ileum bioassay of Kosterlitz et al. Brit. J. Pharmacol. 39, 398 (1970) the IC50 (50% inhibiting concentration) of representative β-endorphins and the relative potency of β-endorphin fragments are as follows.
With “YGGFMTLFKNAIIKNAYKKGE [βh-endorphin-(1-5)-(16-31), H--tyr--Gly--Gly--Phe--Met--Thr--Leu--Phe--Lys--Asn--Ala--Ile--Ile--Lys--Asn--Ala--Tyr--Lys--Lys--Gly--Glu--OH]”, the “more potent than parent compound βh -endorphin” value is reported as “about 35%”.

The same experiment, now with this note: guinea pig ileum bioassay; βh and βc -endorphin = 1.00.
The compound “YGGFMTLFKNAIIKNAYKKGE [βh-endorphin-(1-5)-(16-31), H--tyr--Gly--Gly--Phe--Met--Thr--Leu--Phe--Lys--Asn--Ala--Ile--Ile--Lys--Asn--Ala--Tyr--Lys--Lys--Gly--Glu--OH]” showed a relative potency of 1.35. On the same count and under the same terms, the same measure for “YGGFMTSEKSQTPLVTLFKNAIIKNAHKKGQ [βc -endorphin]”: 1.00; for `CC[C@H](C)[C@H](NC(=O)[C@H](C)NC(=O)[C@H](CC(N)=O)NC(=O)[C@H](CCCCN)NC(=O)[C@H](Cc1ccccc1)NC(=O)[C@H](CC(C)C)NC(=O)[C@@H](NC(=O)[C@@H](NC(=O)[C@H](CC(C)C)NC(=O)[C@@H]1CCCN1C(=O)[C@@H](NC(=O)[C@H](CCC(N)=O)NC(=O)[C@H](CO)NC(=O)[C@H](CCCCN)NC(=O)[C@H](CCC(=O)O)NC(=O)[C@H](CO)NC(=O)[C@@H](NC(=O)[C@H](CCSC)NC(=O)[C@H](Cc1ccccc1)NC(=O)CNC(=O)CNC(=O)[C@@H](N)Cc1ccc(O)cc1)[C@@H](C)O)[C@@H](C)O)C(C)C)[C@@H](C)O)C(=O)N[C@H](C(=O)N[C@@H](CCCCN)C(=O)N[C@@H](CC(N)=O)C(=O)N[C@@H](C)C(=O)N[C@@H](Cc1ccc(O)cc1)C(=O)N[C@@H](CCCCN)C(=O)N[C@@H](CCCCN)C(=O)NCC(=O)N[C@@H](CCC(=O)O)C(=O)O)[C@@H](C)CC` [βh -endorphin]: 1.00. With “βc -endorphin-(6-31): fragment 6-31 of camel β-endorphin (TSEKSQTPLVTLFKNAIIKNAHKKGQ; Beta-endorphin; UniProt P01203 6-31, looked up, fragment)”, the relative potency came to 0.04. For “βc -endorphin-(20-31): fragment 20-31 of camel β-endorphin (NAIIKNAHKKGQ; Beta-endorphin; UniProt P01203 20-31, looked up, fragment)”, the relative potency stood at 0.001.

Compound met-enkephalin yielded a relative potency of 0.26.
